The target of the assay is apotransferrin (Homo sapiens, UniProt P02787). Briefly: Donation of iron to apotransferrin (59Fe, Sephadex G10 separation). It is filed as biochemical. The note with it: 5 x 10^-5M apotransferrin, 1 x 10^-4M iron, pH 7.4. How it is done:
(Maltol)2 (ascorbic acid) iron(III) was prepared in situ by dissolving maltol and ascorbic acid in a 2:1 molar ratio in an aqueous medium containing morpholine propane sulphonate (MOPS, 25 mM) and sodium hydrogen carbonate (30 mM), the pH being adjusted to 7.4 with hydrochloric acid (50% v/v). To the medium was added a solution of ^59Fe enriched ferric chloride in 0.1 M aqueous hydrochloric acid containing a molar amount of iron equivalent to that of the ascorbic acid. Equal volumes of the solution of the iron complex and of apotransferrin in the same aqueous medium were mixed to provide concentrations in the mixture of 5 x 10-^5M of apotransferrin and 1 x 10-^4M of iron.
The mixture was incubated at room temperature in separate experiments for 10 and 60 minutes and an aliquot was then added to a Sephadex G10 column equilibrated with the same aqueous medium described above and the column eluted with that medium, fractions being collected and counted. The percentages of ^59Fe associated with apotransferrin and with ligands are calculated as cpm iron-apotransferrin/total cpm and cpm iron-(maltol)2 (ascorbic acid)/total cpm.

Setting [1] is: after 10 minutes at room temperature.
Where [2] appears, read: after 60 minutes at room temperature.

apotransferrin, sequence (P02787 20-698): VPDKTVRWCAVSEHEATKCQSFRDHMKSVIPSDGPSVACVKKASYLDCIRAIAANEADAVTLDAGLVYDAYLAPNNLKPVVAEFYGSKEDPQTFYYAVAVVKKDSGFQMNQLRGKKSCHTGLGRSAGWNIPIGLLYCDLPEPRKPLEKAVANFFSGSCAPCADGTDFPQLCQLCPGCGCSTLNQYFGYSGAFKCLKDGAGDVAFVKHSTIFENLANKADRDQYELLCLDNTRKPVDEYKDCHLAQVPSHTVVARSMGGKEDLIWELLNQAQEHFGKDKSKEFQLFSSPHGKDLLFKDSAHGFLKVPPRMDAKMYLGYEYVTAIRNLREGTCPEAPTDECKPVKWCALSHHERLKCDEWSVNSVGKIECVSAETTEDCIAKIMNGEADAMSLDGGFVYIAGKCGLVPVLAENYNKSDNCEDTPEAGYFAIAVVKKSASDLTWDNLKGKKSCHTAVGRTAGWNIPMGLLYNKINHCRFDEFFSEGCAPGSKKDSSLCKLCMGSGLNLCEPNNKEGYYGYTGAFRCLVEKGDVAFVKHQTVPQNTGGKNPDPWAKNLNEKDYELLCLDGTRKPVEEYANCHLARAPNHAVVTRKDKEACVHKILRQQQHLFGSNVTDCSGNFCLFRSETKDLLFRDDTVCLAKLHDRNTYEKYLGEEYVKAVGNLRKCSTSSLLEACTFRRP

As to “(maltol)2 (ascorbic acid) iron(III) complex”, under setting [1], the “59Fe associated with apotransferrin” value is 43% and the “59Fe associated with the ligands” value is reported as 57%. Under setting [2], the “59Fe donated to the apotransferrin” value is given as 75% and the “59Fe remaining associated with the ligands” value is recorded as 25%.
